Reference: ChEMBL document CHEMBL1201862, “PubChem BioAssay data set” (2004)
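Five concentrations, 48 hours, 96-well plates. The concentration for 50% growth inhibition is given as GI50.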 The source made the active and inactive calls. Cut-off read from the data, not from the text of the source: active = GI50 up to about 1.1 µM and inactive = higher.

How the values were obtained:
Test in all cases: DTP human tumour cell line panel, 48 h
UO-31 = system: UO-31
NCI-H460 = system: NCI-H460
HL-60 = system: HL-60
M14 = system: M14
HOP-62 = system: HOP-62
OVCAR-8 = system: OVCAR-8
SF-295 = system: SF-295
A549 = system: A549
TK-10 = system: TK-10
SR = system: SR
ACHN = system: ACHN
OVCAR-5 = system: OVCAR-5
U-251 = system: U-251
CCRF-CEM = system: CCRF-CEM
NCI-H522 = system: NCI-H522
EKVX = system: EKVX
NCI-H23 = system: NCI-H23
SF-268 = system: SF-268
DMS-273 = system: DMS-273
SNB-19 = system: SNB-19
HOP-92 = system: HOP-92
SK-OV-3 = system: SK-OV-3
SNB-78 = system: SNB-78
UACC-62 = system: UACC-62
MOLT-4 = system: MOLT-4
A498 = system: A498
M19-MEL = system: M19-MEL
RXF 393 = system: RXF 393
UACC-257 = system: UACC-257
KM12 = system: KM12
SK-MEL-28 = system: SK-MEL-28
HT-29 = system: HT-29
IGROV-1 = system: IGROV-1
NCI-H226 = system: NCI-H226
DMS-114 = system: DMS-114
SF-539 = system: SF-539
HCT-116 = system: HCT-116
HCT-15 = system: HCT-15
LXFL 529 = system: LXFL 529
COLO 205 = system: COLO 205
KM-20L2 = system: KM-20L2
786-0 = system: 786-0
SN12C = system: SN12C
HCC 2998 = system: HCC 2998
SK-MEL-2 = system: SK-MEL-2
RPMI-8226 = system: RPMI-8226
SW-620 = system: SW-620
Malme-3M = system: Malme-3M
K562 = system: K562

Row | Structure (SMILES) | GI50 (UO-31) | GI50 (OVCAR-8) | GI50 (SF-295) | GI50 (A549) | GI50 (TK-10) | GI50 (SR) | GI50 (ACHN) | GI50 (OVCAR-5) | GI50 (U-251) | GI50 (EKVX) | GI50 (NCI-H23) | GI50 (SF-268) | GI50 (DMS-273) | GI50 (SNB-19) | GI50 (HOP-92) | GI50 (SNB-78) | GI50 (MOLT-4) | GI50 (RXF 393) | GI50 (UACC-257) | GI50 (KM12) | other results
1 | CC1(C(=O)Nc2ccc3ccccc3c2)CC2(C)CC(C)(C1)C(O)NC2=O (stereo unspecified) | > 100 µM (inactive) | 86.9 µM (inactive) | > 100 µM (inactive) | > 100 µM (inactive) | > 100 µM (inactive) | > 100 µM (inactive) | > 100 µM (inactive) | > 100 µM (inactive) | > 100 µM (inactive) | > 100 µM (inactive) | > 100 µM (inactive) | > 100 µM (inactive) | > 100 µM (inactive) | > 100 µM (inactive) | > 100 µM (inactive) | > 100 µM (inactive) | > 100 µM (inactive) | > 100 µM (inactive) | 81.5 µM (inactive) | > 100 µM (inactive) | GI50 (NCI-H460): > 100 µM (inactive); GI50 (HL-60): > 100 µM (inactive); GI50 (M14): > 100 µM (inactive); GI50 (HOP-62): > 100 µM (inactive); GI50 (CCRF-CEM): > 100 µM (inactive); GI50 (NCI-H522): > 100 µM (inactive); GI50 (SK-OV-3): > 100 µM (inactive); GI50 (UACC-62): > 100 µM (inactive); GI50 (A498): > 100 µM (inactive); GI50 (M19-MEL): > 100 µM (inactive); GI50 (SK-MEL-28): > 100 µM (inactive); GI50 (HT-29): > 100 µM (inactive); GI50 (IGROV-1): > 100 µM (inactive)
2 | COC(=O)c1cc(Cl)ccc1NC(=O)C1CCCCC1 | 17.6 µM (inactive) | > 100 µM (inactive) | > 100 µM (inactive) | > 100 µM (inactive) | 92.7 µM (inactive) | > 100 µM (inactive) | > 100 µM (inactive) | > 100 µM (inactive) | > 100 µM (inactive) | > 100 µM (inactive) | > 100 µM (inactive) | 48.1 µM (inactive) | > 100 µM (inactive) | > 100 µM (inactive) | 22.8 µM (inactive) | > 100 µM (inactive) | 23.2 µM (inactive) | 33.1 µM (inactive) | > 100 µM (inactive) | > 100 µM (inactive) | GI50 (NCI-H226): > 100 µM (inactive); GI50 (DMS-114): > 100 µM (inactive); GI50 (SF-539): > 100 µM (inactive); GI50 (HCT-116): > 100 µM (inactive); GI50 (HCT-15): > 100 µM; GI50 (LXFL 529): > 100 µM (inactive); GI50 (COLO 205): > 100 µM (inactive); GI50 (KM-20L2): > 100 µM (inactive); GI50 (786-0): > 100 µM (inactive); GI50 (SN12C): 74.6 µM (inactive); GI50 (HCC 2998): > 100 µM (inactive); GI50 (SK-MEL-28): > 100 µM (inactive); GI50 (SK-MEL-2): > 100 µM (inactive); GI50 (HT-29): > 100 µM (inactive); GI50 (RPMI-8226): > 100 µM (inactive); GI50 (SW-620): > 100 µM (inactive); GI50 (Malme-3M): > 100 µM (inactive); GI50 (K562): > 100 µM (inactive)
